These results are taken from US20250333699A1, “METHOD FOR PREPARATION OF CYTOTOXIC T LYMPHOCYTES WITH BROAD TUMOUR-SPECIFIC REACTIVITY AND CHARACTERISTICS OF EARLY DIFFERENTIATION CELLS” (priority 2021, published 2025).

This experiment concerns MAGE antigens. The experiment in a line: Expression of MAGE antigens by RT-PCR (Q-PCR) in CD3/CD28-activated lymphocytes. The settings on record: 10 μM for 2 days in the presence of IL-2 (150 IU/ml); FIG. 3. The format is cell-based, human. The procedure:
Expression of MAGE antigens was determined as follows. The frozen pellets of cells were thawed, and total RNA was isolated from lymphocytes using the NucleoSpin RNA Plus kit (Macherey-Nagel), and reverse transcribed using SuperScript™ IV VILO™ Master Mix with ezDNase™ Enzyme (Invitrogen) and random hexamers and oligo(dT24) primers. cDNA was amplified in a LightCycler Nano (Roche) using the FastStart Essential DNA Green Master mix (Roche) and previously described primers and conditions (Weinert et al., 2009), except primers for MAGE-A4, provided by RealTimePrimers.com. The data were normalized to GAPDH expression.
The cell suspension was transferred to a 50 ml tube, and the cell concentration was determined. At this stage the culture contains only activated lymphocytes, and upon counting in a Moxi cell counter appear as a single peak of cells with an average size of 10-11 μm. 2×10^7 cells (or all cells) were set for centrifugation. […]
5-Aza-CdR-treated cultures were harvested and centrifuged. […] After this, cells were counted, and 10×10^6 cells were mixed with 10×10^6 thawed lymphocytes, and after centrifugation, resuspended in 20 ml of lymphocyte medium and transferred to a T75 tissue culture flask, side position. […]

In the case of `Nc1ncn([C@H]2C[C@H](O)[C@@H](CO)O2)c(=O)n1` [5-aza-CdR, 5-aza-2′-deoxycytidine], the “expression of selected CT antigens of the MAGE family” value is “Robust and consistent expression”.
